In PMC3326647, “Single Enantiomer of YK-4-279 Demonstrates Specificity in Targeting the Oncogene EWS-FLI1” (Oncotarget, 2012):
pIC50: −log10 of the molar value. Read-outs that look alike come from different tables or passages of the source.

What was measured:
RDES cells = experiment: Cellular proliferation (WST) assay, RDES; assay type: cell-based; conditions: for pIC50: RD-ES, 72 h, RDES, ESFT (Type 2), read-out: IC50 at 3 days (+/− SEM)
Description: (§1) TC32, TC71, RDES, MMH-ES-1, STA-ET 7.2, A4573, and PC3 cells were grown in RPMI with 10% FBS and 1% HEPES. SKES cells were grown in McCoy's 5A medium with 15% FBS. MCF7, MDA-MB-231, PANC1, and ASPC1 cells were grown in colorless DMEM with 10% FBS. Cells were grown at a plating density of 5,000 – 15,000 cells/well, depending on cell line, in a 96-well plate. Small molecule or vehicle alone (DMSO) were added to cells in appropriate growth media the day after plating. After three days, viable cells were quantified using WST (Roche) according to the manufacturer's protocol. IC50 values were calculated by sigmoidal dose-response curve fit using Prism Graphpad 4.0.

MMH-ES-1 cells = experiment: Cellular proliferation (WST) assay, MMH-ES-1; assay type: cell-based; conditions: 72 h; MMH-ES-1, ESFT (Type 2); read-out: IC50 at 3 days (+/− SEM)
Description: as §1

[1] = biological target: T1, EWS-FLI1 transcriptional activity (Homo sapiens, UniProt Q01543+Q01844); experiment: NR0B1-luciferase reporter assay in COS7 cells transfected with EWS-FLI1; assay type: cell-based; conditions: for luciferase activity compared to vehicle: COS7 cells, dose of 0.3μM
T1 sequence (Q01844 1-264): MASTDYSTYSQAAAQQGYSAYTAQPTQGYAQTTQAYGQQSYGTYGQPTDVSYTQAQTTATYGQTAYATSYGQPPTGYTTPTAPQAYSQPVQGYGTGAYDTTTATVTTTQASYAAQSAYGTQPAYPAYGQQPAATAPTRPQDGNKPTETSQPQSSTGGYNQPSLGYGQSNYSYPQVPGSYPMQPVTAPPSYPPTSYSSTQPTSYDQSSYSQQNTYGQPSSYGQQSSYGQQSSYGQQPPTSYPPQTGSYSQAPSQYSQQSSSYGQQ
T1 sequence (Q01543 220-452): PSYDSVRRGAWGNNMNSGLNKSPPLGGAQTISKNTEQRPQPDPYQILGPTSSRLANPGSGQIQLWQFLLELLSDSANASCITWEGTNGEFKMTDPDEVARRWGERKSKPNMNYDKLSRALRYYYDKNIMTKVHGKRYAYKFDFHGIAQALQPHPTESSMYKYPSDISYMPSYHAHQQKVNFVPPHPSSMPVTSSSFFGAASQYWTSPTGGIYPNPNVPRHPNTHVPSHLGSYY
Description: Cells were transiently transfected with the NR0B1 luciferase reporter and full length EWS-FLI1 into COS7 cells with Fugene-6 (Roche) according to the manufacturer's protocol. Two hours after transformation, cells were treated with 0.3, 1, and 3μM of YK-4-279, (S)-YK-4-279, and (R)-YK-4-279. Luciferase activity was measured 16 hours after treatment. Protein concentration was normalized by absorbance at 280nm. All luciferase assays were performed using a luciferase assay kit according to the manufacturer's protocol (Promega).

TC32 cells = experiment: Cellular proliferation (WST) assay, TC32; assay type: cell-based; conditions: Homo sapiens, TC-32, 72 h; TC32, ESFT (Type 1); read-out: IC50 at 3 days (+/− SEM)
Description: as §1

MDA-MB-231 cells [2] = experiment: Cellular proliferation (WST) assay, MDA-MB-231; assay type: cell-based; conditions: Homo sapiens, 72 h; MDA-MB-231, breast; read-out: IC50 at 3 days (+/− SEM)
Description: as §1

[3] = Pharmacokinetic analysis in rats; assay type: in vivo; conditions: both sexes, Sprague-Dawley, plasma, po; rat, gavage administration
Description: (§2) All pharmacokinetic studies were performed using Sprague-Dawley rats. Nine rats per gender were assigned to nine dose groups, which received either a single IV injection of YK-4-279, (S)-YK-4-279, or (R)-YK-4-279 at a target dose of 25 mg/kg, or a single gavage administration of small molecule at a target dose level of 25 or 50 mg/kg. Plasma was obtained from the rats and samples were processed by liquid extraction followed by analysis using liquid chromatography with mass spectrometry (LC/MS). Average urine concentrations were measured at intervals from 0-4, 4-8, and 8-12 hours after dosing. 18 Fox Chase SCID Beige mice were injected with A4573 cells and received six doses of (S)-YK-4-279 at 75 mg/kg to determine concentration of small molecule in the tumors.

[4] = system: caspase-3 activity in A4573 ESFT cells; experiment: Caspase-3 activation dose titration in A4573 cells; assay type: cell-based; conditions: between 0.3 and 1μM, 18 hours
Description: (§3) Cells were plated at 100,000 – 200,000 cells/well, depending on cell line, in a 12 well plate. Small molecule was added the following day. 18 hours later, lysates were collected using the manufacturer's protocol for the AC-DEVD-AMC substrate (BD Bioscience Pharmingen). Caspase-3 substrate was incubated for 2 hours with protein lysate and fluorescence from cleaved substrate was measured in a fluorimeter. Fluorescent signal was then normalized to protein lysate via BCA assay.

[5] = system: caspase-3 activity in ESFT cells (TC32, RDES, SKES, A4573, MMH-ES-1, STA-ET 7.2); experiment: Caspase-3 activity in ESFT cells; assay type: cell-based; conditions: 10μM, 18 hours
Description: as §3

[6] = Evaluation of racemization in A4573 ESFT xenograft tumors; assay type: in vivo; conditions: A4573 tumor-bearing SCID mice, IP (75 mg/kg), tumors resected two hours following dosing
Description: as §2

MDA-MB-231 cells [7] = conditions: MDA-MB-231 from a different source, previously reported; cited from earlier work
PANC1 cells = conditions: PANC1 from a different source, previously reported; cited from earlier work
[8] = set-up: method as in PMID 19584866; conditions: xenograft mice, 75 mg per kg body weight; cited from earlier work
[9] = system: non-transformed cell lines; set-up: method as in PMID 19584866; conditions: racemic; cited from earlier work

Compound	pIC50 (RDES cells)	pIC50 (MMH-ES-1 cells)	luciferase activity compared to control ([1]; COS7 cells, 0.3, 1 and 3μM)	pIC50 (TC32 cells)	pIC50 (MDA-MB-231 cells [2])	bioavailability [3]	fold-difference in IC50 between the racemic and the active enantiomer (RDES cells; RDES cells)	luciferase activity compared to vehicle [1]	slope (m), rate of caspase activity increase [4]	caspase-3 activation, average across the panel of six ESFT cell lines [5]	Percent of (S)-YK-4-279 present in tumor [6]	pIC50 (MDA-MB-231 cells [7])	pIC50 (PANC1 cells)	toxicity [8]	pIC50 [9]
COc1ccc(C(=O)C[C@]2(O)C(=O)Nc3c(Cl)ccc(Cl)c32)cc1 [(R)-YK-4-279]	4.90	4.59	did not show significant reduction from control	4.79	4.66	8 to 15%									
COc1ccc(C(=O)C[C@@]2(O)C(=O)Nc3c(Cl)ccc(Cl)c32)cc1 [(S)-YK-4-279]	6.06	6.47		6.55	5.93	2 to 6%	1.18 fold	significantly reduced	7.23 ± 0.32	10.3 fold	100%				
COc1ccc(C(=O)CC2(O)C(=O)Nc3c(Cl)ccc(Cl)c32)cc1 (stereo not drawn) [YK-4-279]	5.99	6.03		6.03	6.09			not significant	4.43 ± 0.66	8.8 fold		< 4.70	< 4.70	no toxicity	< 4.52
